Square brackets hold non-standard residues; d marks the D form. Peptide text beside a SMILES is read from it. NMeR = CN[C@@H](CCCNC(=N)N)C(=O)O; 3Amb = NCc1cccc(C(=O)O)c1; dAbu = CC[C@@H](N)C(=O)O

The target in the assay is Integrin alpha-V/beta-3 (Homo sapiens, UniProt P05106+P06756). The assay can be described thus: Inhibition of alphaV-beta3 interaction with vitronectin. The format is protein-complex assay.
Sequence of Integrin alpha-V/beta-3 (P05106 27-788 limits assumed): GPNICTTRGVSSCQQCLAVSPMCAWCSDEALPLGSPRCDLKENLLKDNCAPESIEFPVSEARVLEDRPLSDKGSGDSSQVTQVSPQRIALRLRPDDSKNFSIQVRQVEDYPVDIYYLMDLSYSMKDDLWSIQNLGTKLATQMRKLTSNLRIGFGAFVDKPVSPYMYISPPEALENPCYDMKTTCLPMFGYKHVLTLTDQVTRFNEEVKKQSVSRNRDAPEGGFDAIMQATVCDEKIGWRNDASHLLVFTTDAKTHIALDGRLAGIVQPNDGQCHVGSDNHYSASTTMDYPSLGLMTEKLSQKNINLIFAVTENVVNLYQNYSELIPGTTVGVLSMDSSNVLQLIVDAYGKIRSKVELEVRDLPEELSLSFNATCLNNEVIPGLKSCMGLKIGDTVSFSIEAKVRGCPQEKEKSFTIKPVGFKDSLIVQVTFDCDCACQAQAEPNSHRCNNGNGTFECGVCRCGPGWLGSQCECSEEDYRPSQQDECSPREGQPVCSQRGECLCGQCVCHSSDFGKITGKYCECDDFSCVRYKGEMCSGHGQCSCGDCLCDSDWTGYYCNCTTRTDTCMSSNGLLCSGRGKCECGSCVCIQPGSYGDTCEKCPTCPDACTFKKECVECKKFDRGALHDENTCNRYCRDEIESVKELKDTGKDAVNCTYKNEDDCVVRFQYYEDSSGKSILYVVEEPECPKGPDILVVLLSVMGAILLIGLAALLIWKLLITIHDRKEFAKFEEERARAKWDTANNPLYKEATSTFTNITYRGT
Sequence of Integrin alpha-V/beta-3 (P06756 31-889 limits assumed): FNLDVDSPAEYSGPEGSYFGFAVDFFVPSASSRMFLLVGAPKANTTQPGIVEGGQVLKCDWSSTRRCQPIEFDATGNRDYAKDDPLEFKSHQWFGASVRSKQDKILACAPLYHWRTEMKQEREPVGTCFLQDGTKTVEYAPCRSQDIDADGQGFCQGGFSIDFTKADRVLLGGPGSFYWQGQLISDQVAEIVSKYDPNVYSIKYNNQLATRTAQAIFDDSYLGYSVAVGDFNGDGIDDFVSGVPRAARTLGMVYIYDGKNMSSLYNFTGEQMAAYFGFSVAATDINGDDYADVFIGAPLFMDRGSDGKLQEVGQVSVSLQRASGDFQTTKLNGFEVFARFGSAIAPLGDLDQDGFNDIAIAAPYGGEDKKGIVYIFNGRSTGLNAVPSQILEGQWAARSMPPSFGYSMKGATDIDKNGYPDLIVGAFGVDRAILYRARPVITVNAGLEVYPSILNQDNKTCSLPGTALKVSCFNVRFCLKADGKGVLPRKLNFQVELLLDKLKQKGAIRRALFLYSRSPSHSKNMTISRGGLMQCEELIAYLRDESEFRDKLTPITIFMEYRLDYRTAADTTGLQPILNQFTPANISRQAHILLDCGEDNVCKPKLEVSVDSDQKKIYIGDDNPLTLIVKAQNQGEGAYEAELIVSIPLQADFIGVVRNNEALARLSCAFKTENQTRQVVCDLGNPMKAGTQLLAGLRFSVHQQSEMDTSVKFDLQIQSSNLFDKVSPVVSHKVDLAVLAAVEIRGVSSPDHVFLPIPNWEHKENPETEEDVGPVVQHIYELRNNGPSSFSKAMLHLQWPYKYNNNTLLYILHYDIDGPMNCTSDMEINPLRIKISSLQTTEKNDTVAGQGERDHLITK
Sequence of Integrin alpha-V/beta-3 (P06756 891-1048 limits assumed): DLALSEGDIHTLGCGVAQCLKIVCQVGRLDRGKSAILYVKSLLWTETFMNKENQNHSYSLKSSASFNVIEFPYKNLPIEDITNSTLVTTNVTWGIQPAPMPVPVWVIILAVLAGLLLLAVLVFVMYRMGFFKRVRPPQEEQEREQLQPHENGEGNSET
As for `CC[C@H]1NC(=O)c2cccc(c2)CNC(=O)[C@H](CC(=O)O)NC(=O)CNC(=O)[C@H](CCCN=C(N)N)N(C)C1=O` (cyclo([NMeR]GD[3Amb][dAbu])), the IC50 (commonly the concentration needed to halve the response being measured) was > 10000 nM. For `NC(N)=NCCC[C@H](NC(=O)[C@H](CC(=O)O)NC(=O)CNC(=O)[C@@H](N)CCCN=C(N)N)C(=O)NCC(=O)N[C@@H](CC(=O)O)C(=O)O` (H-RGDRGD-OH), it took 70 nM to reach half-maximal inhibition (IC50). The compound `N=C(N)NCCC[C@@H]1NC(=O)[C@H](CC(=O)O)NC(=O)CNC(=O)[C@H](CCCNC(=N)N)NC(=O)[C@@H](CC(=O)O)NC(=O)CNC1=O` showed an IC50 of 320 nM. The result for `N=C(N)NCCC[C@@H]1NC(=O)[C@H](CC(=O)O)NC(=O)CNC(=O)[C@H](CCCNC(=N)N)NC(=O)[C@H](CC(=O)O)NC(=O)CNC1=O` reads 140 nM.

The values above are taken from ChEMBL document CHEMBL1129390, “Synthesis and solution conformation of cyclo[RGDRGD]: a cyclic peptide with selectivity for the alpha V beta 3 receptor” (J Med Chem, 1996).
